Assay results taken from patent publication US9796719B2, “Compounds and pharmaceutical compositions thereof for the treatment of inflammatory disorders” (GALAPAGOS NV, priority 2013, dated 2017).

Legend:
[1] = tested on: recruited BALF cells; test: LPS induced lung inflammation model (in-LPS test); type: in vivo, mouse; details: versus inLPS Vehicle group
Experimental: The aim of the assay is to assess the effect of a test compound in a mouse model of acute lung inflammation induced by intranasal instillation of LPS. The impact on the induced cells recruitment in lung is evaluated by measurement of white cells count in broncho-alveolar lavage (BAL) fluid with VetABC device (medical solution gmbh, Rothusstrasse 23, 6331 Hunenberg, Switzerland).
The animals (BALB/c J mice, 18-20 g) are obtained from Harlan Laboratories (Maison-Alfort, France). The animals are maintained on 12 hours light/dark cycle at 22° C. with ad libitum access to tap water and food. Litters are changed twice a week. For each tested compound, a group of 10 subjects is used. In addition to the test compound-treated groups, a vehicle+LPS control group (inLPS), a non-treated group (intact), and a positive control dexamethasone treated group (DEX) are used.
LPS is dissolved in saline solution in order to obtain a final 10 μg/50 μL solution for intranasal instillation, and administered at 50 μL/mouse by intranasal instillation.
The test compounds are prepared in 15 mL PEG200 (9 mL)/H2O (6 mL) to be dosed in a range of 0.3, 1, 3, 10, and 30 mg/kg, and then kept at room temperature in the dark, and are administered once (qd) or twice daily (bid) over 2 days.
Dexamethasone (10 mg/kg, bid, po) is used as a positive control.
On day 1, mice are anaesthetized by isoflurane inhalation. During breathing, LPS solution is instilled intra-nasally and mice are monitored until complete recovery from anaesthesia.
On day 2, mice are anaesthetized by intra-peritoneal injection (under a volume of 10 mL/kg) of anaesthetic solution (18 mL NaCl 0.9%+0.5 mL xylazine (5 mg/kg)+1.5 mL ketamine (75 mg/kg)).
The trachea is canulated with a catheter, and BAL is performed by 2×0.75 mL sterile PBS. The BAL fluid removed is shaked gently at room temperature before centrifugation at 1500 r.p.m. during 10 min at 4° C.
The supernatant is removed and the cell pellet is suspended in 200 μL of PBS, kept on ice and total cell count is processed with VetABC device. Finally, mice are sacrificed under anaesthesia.
For each readout, mean and sem are calculated. A difference statistically significant between intact or treated groups and inLPS Vehicle group is evaluated with Prism® software using a one-way ANOVA (for treatment groups) followed by a Student test. *: p<0.05; **: p<0.01; ***: p<0.001 versus inLPS Vehicle group.

[2] = molecular target: T1, hENPP2 (UniProtKB/SwissProt Sequence ref Q13822) (Homo sapiens (Human), UniProt Q13822); test: LPC hENPP2 assay (choline release, LPC as substrate); type: biochemical
Summary of the method: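 Choline released from LPC by ENPP2 is quantified after stopping with stop-developer containing 0.6 U/mL choline oxidase, 0.6 U/mL peroxidase, 1.8 mM TOOS, 1.2 mM amino-antipyrine and 20 mM EGTA. Quinoneimine dye read at 555 nm after 30 min at room temperature.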

[3] = molecular target: T1, hENPP2; test: FS3 hENPP2 assay (fluorogenic substrate FS-3); type: biochemical; details: hENPP2, FS-3 as substrate
Summary of the method: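 Compound dilutions (1/5 steps, top concentration as added 20 μM) were preincubated 30 min at room temperature with hENPP2 (0.4 or 0.64 μg/mL final) in pH 8.0 Tris buffer containing NaCl, KCl, MgCl2, CaCl2 and 0.1% fatty-acid-free BSA. FS-3 (0.75 μM as added) was then hydrolysed for 30 min at 30 °C, and fluorescence was read at 485/520 nm.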

[4] = tested on: LPA 18:2; test: Rat whole blood (plasma) LPA assay; type: biochemical
Experimental: Whole blood is collected from rats or mouse by exsanguinations on sodium heparin tube, then after centrifugation at 3000 rpm for 15 min at 4° C., plasma is stored at −80° C. Compounds are diluted in DMSO in concentration dependent manner then 0.5 μL are dispensed into 96-wells plate placed in ice. Plasma is defrosted on ice then 49.5 μL of plasma are added into the well containing 0.5 μL of compound (1% DMSO final). Plates are covered with a lid in polypropylene and incubated at +37° C., 5% CO2, for 2 h under gentle shaking (except controls which are stored at −20° C.).
At the end of the incubation, controls are defrosted in ice and transferred in the incubated plates for LC-MS/MS analysis with a non GLP-validated method. For the analysis, plasma proteins from a 10 μL incubated plates are precipitated with an excess of methanol containing the internal standard, LPA 17:0. After centrifugation, the corresponding supernatant is injected on a C18 column. Analytes are eluted out of the column under isocratic conditions. An API5500 QTRAP mass spectrometer (ABSciex™) is used for the detection of LPA 18:2. No calibration curve is prepared for LPA 18:2, however relative quantities are evaluated based on the peak area.

Row | IC50 [2] [nM] | IC50 [3] [nM] | IC50 [4] [nM] | Compound | Effect significance on recruited BALF cells ([1]; 3 mg/kg bid po) | Effect significance on recruited BALF cells ([1]; 10 mg/kg bid po) | Effect significance on recruited BALF cells ([1]; 30 mg/kg bid po)
1 | 0.01 to 100 |  |  | CCc1nc2ccc(N3CCN(CC(=O)N(C)C)CC3)nn2c1N(C)c1nc(-c2ccc(F)cc2)c(C#N)s1 [Compound 44, 2-(4-(3-((5-cyano-4-(4-fluorophenyl)thiazol-2-yl)(methyl)amino)-2-ethylimidazo[1,2-b]pyridazin-6-yl)piperazin-1-yl)-N,N-dimethylacetamide] | ** (**: p<0.01) |  | 
2 | 100 to 500 | 0.01 to 25 |  | CCc1nc2ccc(C3CCN(CC(=O)N4CC(O)C4)CC3)nn2c1N(C)c1nc(-c2ccc(F)cc2)cs1 [Cpd 201, 2-(4-(2-ethyl-3-((4-(4-fluorophenyl)thiazol-2-yl)(methyl)amino)imidazo[1,2-b]pyridazin-6-yl)piperidin-1-yl)-1-(3-hydroxyazetidin-1-yl)ethanone] |  | ** (**: p<0.01) | 
3 | > 1000 | > 100 | > 1000 | CCc1nc2cnc(N3CCN(CC(=O)N4CC(O)C4)CC3)cn2c1N(C)c1ncc(C#N)c(-c2ccc(F)cc2)n1 [Cpd 19, 2-((2-ethyl-6-(4-(2-(3-hydroxyazetidin-1-yl)-2-oxoethyl)piperazin-1-yl)imidazo[1,2-a]pyrazin-3-yl)(methyl)amino)-4-(4-fluorophenyl) pyrimidine-5-carbonitrile] |  |  | 
4 | 100 to 500 | 0.01 to 25 | 100 to 500 | CCc1nc2cnc(N3CCN(CC(=O)N4CC[C@@H](O)C4)CC3)cn2c1N(C)c1nc(-c2ccc(F)cc2)c(C#N)s1 [Cpd 6, (R)-2-((2-ethyl-6-(4-(2-(3-hydroxypyrrolidin-1-yl)-2-oxoethyl)piperazin-1-yl)imidazo[1,2-a]pyrazin-3-yl)(methyl)amino)-4-(4-fluorophenyl) thiazole-5-carbonitrile] |  |  | 
5 | 100 to 500 | 0.01 to 25 | 100 to 500 | CCc1nc2cnc(C3CCN(CC(=O)N4CC(O)C4)CC3)cn2c1N(C)c1nc(-c2ccc(F)cc2)c(C#N)s1 [Cpd 23, 2-((2-ethyl-6-(1-(2-(3-hydroxyazetidin-1-yl)-2-oxoethyl)piperidin-4-yl)imidazo[1,2-a]pyrazin-3-yl)(methyl)amino)-4-(4-fluorophenyl) thiazole-5-carbonitrile] |  |  | 
6 | 100 to 500 | 0.01 to 25 | > 1000 | CCc1nc2cnc(N3CCN(CC(=O)N(C)C)CC3)cn2c1N(C)c1nc(-c2ccc(F)cc2)c(C#N)s1 [Cpd 5, 2-(4-(3-((5-cyano-4-(4-fluorophenyl)thiazol-2-yl)(methyl)amino)-2-ethylimidazo[1,2-a]pyrazin-6-yl)piperazin-1-yl)-N,N-dimethylacetamide] |  |  | 
7 | 100 to 500 | 0.01 to 25 |  | CCc1nc2ccc(N3CCN(CC(=O)N4CC[C@H](O)C4)CC3)nn2c1N(C)c1nc(-c2ccc(F)cc2)cs1 [Compound 34, (S)-2-(4-(2-ethyl-3-((4-(4-fluorophenyl)thiazol-2-yl)(methyl)amino)imidazo[1,2-b]pyridazin-6-yl)piperazin-1-yl)-1-(3-hydroxypyrrolidin-1-yl)ethanone] |  | * (*: p<0.05) | 
8 | 500 to 1000 | 0.01 to 25 | > 1000 | CCc1nc2ccc(C3CCN(CC(=O)N4CC(O)C4)CC3)nn2c1N(C)c1ccnc(-c2ccc(F)cc2)n1 [Cpd 216, 2-(4-(2-ethyl-3-((2-(4-fluorophenyl)pyrimidin-4-yl)(methyl)amino)imidazo[1,2-b]pyridazin-6-yl)piperidin-1-yl)-1-(3-hydroxyazetidin-1-yl)ethanone] |  |  | 
9 | 100 to 500 | 0.01 to 25 | 100 to 500 | CCc1nc2ccc(C3CCN(CC(=O)N4CC(O)C4)CC3)nn2c1N(C)c1ccc(C#N)c(-c2ccc(F)cc2)n1 [Cpd 218, 6-((2-ethyl-6-(1-(2-(3-hydroxyazetidin-1-yl)-2-oxoethyl)piperidin-4-yl)imidazo[1,2-b]pyridazin-3-yl)(methyl)amino)-2-(4-fluorophenyl) nicotinonitrile] |  |  | 
10 | 100 to 500 | 0.01 to 25 |  | CCc1nc2ccc(N3CCN(CC(=O)N4CC[C@@H](O)C4)CC3)nn2c1N(C)c1nc(-c2ccc(F)cc2)cs1 [Cpd 33, (R)-2-(4-(2-ethyl-3-((4-(4-fluorophenyl)thiazol-2-yl)(methyl)amino)imidazo[1,2-b]pyridazin-6-yl)piperazin-1-yl)-1-(3-hydroxypyrrolidin-l-yl)ethanone] |  | ** (**: p<0.01) | 
11 | 100 to 500 | 0.01 to 25 | 100 to 500 | CCc1nc2ccc(N3CCN(CC(=O)N(C)C)CC3)nn2c1N(C)c1nc(-c2ccc(F)cc2)cs1 [Cpd 42, 2-(4-(2-ethyl-3-((4-(4-fluorophenyl)thiazol-2-yl)(methyl)amino)imidazo[1,2-b]pyridazin-6-yl)piperazin-1-yl)-N,N-dimethylacetamide] | *** (***: p<0.001) |  | *** (***: p<0.001)
12 | > 1000 | 50 to 100 | > 1000 | CCc1nc2cnc(N3CCN(CC(=O)N4CC(O)C4)CC3)cn2c1N(C)c1nc(-c2ccc(F)cc2C#N)cs1 [Cpd 16, 2-(2-((2-ethyl-6-(4-(2-(3-hydroxyazetidin-1-yl)-2-oxoethyl)piperazin-1-yl)imidazo[1,2-a]pyrazin-3-yl)(methyl)amino)thiazol-4-yl)-5-fluorobenzonitrile] |  |  | 
13 | 100 to 500 | 0.01 to 25 | 0.01 to 100 | CN(c1nc(-c2ccc(F)cc2)cs1)c1c(CCC#N)nc2ccc(C3CCN(S(C)(=O)=O)CC3)nn12 [Compound 198, 3-(3-((4-(4-fluorophenyl)thiazol-2-yl)(methyl)amino)-6-(1-(methylsulfonyl)piperidin-4-yl)imidazo[1,2-b]pyridazin-2-yl)propanenitrile] |  |  | 
14 | 100 to 500 | 0.01 to 25 | 100 to 500 | CCc1nc2cnc(N3CCN(CC(=O)N4CC[C@H](O)C4)CC3)cn2c1N(C)c1nc(-c2ccc(F)cc2)c(C#N)s1 [Cpd 7, (S)-2-((2-ethyl-6-(4-(2-(3-hydroxypyrrolidin-1-yl)-2-oxoethyl)piperazin-1-yl)imidazo[1,2-a]pyrazin-3-yl)(methyl)amino)-4-(4-fluorophenyl) thiazole-5-carbonitrile] |  |  | 
15 | 0.01 to 100 | 0.01 to 25 | 0.01 to 100 | CCc1nc2ccc(N3CCN(S(=O)(=O)CCCN(C)C)[C@H](CO)C3)nn2c1N(C)c1nc(-c2ccc(F)cc2)cs1 [Cpd 63, (S)-(1-(3-(dimethylamino)propylsulfonyl)-4-(2-ethyl-3-((4-(4-fluorophenyl)thiazol-2-yl)(methyl)amino)imidazo[1,2-b]pyridazin-6-yl)piperazin-2-yl)methanol] |  |  | 
